ChEMBL document CHEMBL1201862, “PubChem BioAssay data set” (2004)
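Tested at 5 concentrations; 48 h exposure; 96-well plates; endpoints linearly interpolated, else capped at highest concentration. GI50 marks 50% less growth.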 Active and inactive are the calls of the source. Rule as the data show it: active = GI50 up to about 1.1 µM and inactive = higher.

What was measured:
Test in all cases: DTP human tumour cell line panel, 48 h
IGROV-1 = test system: IGROV-1
OVCAR-5 = test system: OVCAR-5
HOP-62 = test system: HOP-62
OVCAR-4 = test system: OVCAR-4
SNB-19 = test system: SNB-19
LOX IMVI = test system: LOX IMVI
TK-10 = test system: TK-10
HCT-116 = test system: HCT-116
EKVX = test system: EKVX
SK-MEL-2 = test system: SK-MEL-2
HT-29 = test system: HT-29
OVCAR-3 = test system: OVCAR-3
U-251 = test system: U-251
HOP-92 = test system: HOP-92
KM12 = test system: KM12
ACHN = test system: ACHN
HCT-15 = test system: HCT-15
SF-539 = test system: SF-539

Compound	GI50 (IGROV-1)	GI50 (OVCAR-5)	GI50 (HOP-62)	GI50 (OVCAR-4)	GI50 (SNB-19)	GI50 (LOX IMVI)	GI50 (TK-10)	GI50 (HCT-116)	GI50 (EKVX)	GI50 (SK-MEL-2)	GI50 (HT-29)	GI50 (OVCAR-3)	GI50 (U-251)	GI50 (HOP-92)	GI50 (KM12)	GI50 (ACHN)	GI50 (HCT-15) [µM]	GI50 (SF-539)
O=C(c1ccccc1)C1N=NN(Cc2ccccc2[N+](=O)[O-])C1C(=O)c1ccccc1 (centres undefined)	> 100 µM (inactive)	> 100 µM (inactive)	> 100 µM (inactive)	> 100 µM (inactive)	> 100 µM (inactive)	> 100 µM (inactive)	> 100 µM (inactive)	> 100 µM (inactive)	> 100 µM (inactive)	> 100 µM (inactive)	> 100 µM (inactive)	> 100 µM (inactive)	> 100 µM (inactive)	> 100 µM (inactive)	> 100 µM (inactive)	> 100 µM (inactive)	> 100	
O=C1C2C(C(=O)N1c1ccccc1)C1([N+](=O)[O-])C=C3c4ccccc4N(C(=O)c4ccccc4)C32C2C(=O)N(c3ccccc3)C(=O)C21 (centres undefined)	> 100 µM (inactive)	> 100 µM (inactive)	> 100 µM (inactive)		> 100 µM (inactive)	> 100 µM (inactive)	> 100 µM (inactive)	> 100 µM (inactive)		> 100 µM (inactive)	> 100 µM (inactive)	> 100 µM (inactive)	> 100 µM (inactive)	> 100 µM (inactive)	> 100 µM (inactive)	> 100 µM (inactive)	> 100	> 10 µM (inactive)
CN1C(=O)C(=CN(C)c2ccccc2)C(=O)N(C)C1=O	56.5 µM (inactive)	> 100 µM (inactive)		> 100 µM (inactive)	> 100 µM (inactive)	> 100 µM (inactive)	> 100 µM (inactive)	> 100 µM (inactive)	65.8 µM (inactive)	> 100 µM (inactive)		90.4 µM (inactive)	> 100 µM (inactive)		> 100 µM (inactive)	> 100 µM (inactive)	> 100	> 100 µM (inactive)
CC1CCCC(C(O)CC2CC(=O)N(c3ccccc3)C(=O)C2)C1=O (centres undefined)	> 100 µM (inactive)	> 100 µM (inactive)	> 100 µM (inactive)	> 100 µM (inactive)	> 100 µM (inactive)	> 100 µM (inactive)	> 100 µM (inactive)	> 100 µM (inactive)	> 100 µM (inactive)		> 100 µM (inactive)	> 100 µM (inactive)	> 100 µM (inactive)	> 100 µM (inactive)	> 100 µM (inactive)	> 100 µM (inactive)		> 100 µM (inactive)
C\C=C/C=C/C=C/C(=O)O	> 100 µM (inactive)	> 100 µM (inactive)	> 100 µM (inactive)	> 100 µM (inactive)	> 100 µM (inactive)	> 100 µM (inactive)		> 100 µM (inactive)	67.3 µM (inactive)	> 100 µM (inactive)	> 100 µM (inactive)	> 100 µM (inactive)	> 100 µM (inactive)		> 100 µM (inactive)	> 100 µM (inactive)	> 100	> 100 µM (inactive)
COc1c(O)c2c3c(c(C)cc(O)c3c1O)C(=O)C(O)(C(C)(C)C(C)=O)C2=O (centres undefined)	> 100 µM (inactive)	> 100 µM (inactive)	> 100 µM (inactive)	> 100 µM (inactive)	> 100 µM (inactive)		> 100 µM (inactive)	> 100 µM (inactive)		> 100 µM (inactive)	> 100 µM (inactive)	> 100 µM (inactive)	> 100 µM (inactive)	> 100 µM (inactive)	> 100 µM (inactive)	> 100 µM (inactive)	> 100	> 100 µM (inactive)
N#CC1=C(Cl)NC(Cl)=C(C#N)C1c1ccc(Cl)cc1	18.2 µM (inactive)	34 µM (inactive)	18.1 µM (inactive)		16.6 µM (inactive)	16.1 µM (inactive)	18 µM (inactive)	20.2 µM (inactive)	19.5 µM (inactive)	13.9 µM (inactive)	16 µM (inactive)	14 µM (inactive)	16.3 µM (inactive)	15.2 µM (inactive)	17.6 µM (inactive)	17.7 µM (inactive)	15.4	18.1 µM (inactive)
CCOc1ccccc1NC(=O)C1=C(C)NC(C)=C(C(=O)Nc2ccccc2OCC)C1c1cccc([N+](=O)[O-])c1	> 100 µM (inactive)	> 100 µM (inactive)	39.3 µM (inactive)	14.2 µM (inactive)	> 100 µM (inactive)	66.8 µM (inactive)	> 100 µM (inactive)		30.1 µM (inactive)	39.3 µM (inactive)	98.4 µM (inactive)	80.9 µM (inactive)	> 100 µM (inactive)	4.29 µM (inactive)	49.9 µM (inactive)	29.9 µM (inactive)		40.2 µM (inactive)
